Results published in patent US8124793B2, “Derivatives of ethylene methanedisulfonate as cancer chemotherapeutic agents” (priority 2007, dated 2012).

Legend:
NCI-H460 = assay: NCI screen, growth of human tumor cells: Non-Small Cell Lung NCI-H460; type: cell-based; conditions: NCI-H460 (Non-Small Cell Lung), 10^−4 molar
Outline: (§1)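 Under the NCI protocol, every compound is profiled with sixty or more data points. Each point ties a cancer type and a molar screening concentration to a percent growth value.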

UACC-62 = assay: NCI screen, growth of human tumor cells: Melanoma UACC-62; type: cell-based; conditions: UACC-62 (Melanoma), 10^−4 molar
Outline: as §1

CCRF-CEM = assay: NCI screen, growth of human tumor cells: Leukemia CCRF-CEM; type: cell-based; conditions: CCRF-CEM (Leukemia), 10^−4 molar
Outline: as §1

HOP-92 = assay: NCI screen, growth of human tumor cells: Non-Small Cell Lung HOP-92; type: cell-based; conditions: HOP-92 (Non-Small Cell Lung), 10^−4 molar
Outline: as §1

786-0 = assay: NCI screen, growth of human tumor cells: Renal Cancer 786-0; type: cell-based; conditions: 786-0 (Renal Cancer), 10^−4 molar
Outline: as §1

MOLT-4 = assay: NCI screen, growth of human tumor cells: Leukemia MOLT-4; type: cell-based; conditions: MOLT-4 (Leukemia), 10^−4 molar
Outline: as §1

SNB-19 = assay: NCI screen, growth of human tumor cells: CNS Cancer SNB-19; type: cell-based; conditions: SNB-19 (CNS Cancer), 10^−4 molar
Outline: as §1

ACHN = assay: NCI screen, growth of human tumor cells: Renal Cancer ACHN; type: cell-based; conditions: ACHN (Renal Cancer), 10^−4 molar
Outline: as §1

CAKI-1 = assay: NCI screen, growth of human tumor cells: Renal Cancer CAKI-1; type: cell-based; conditions: CAKI-1 (Renal Cancer), 10^−4 molar
Outline: as §1

SNB-75 = assay: NCI screen, growth of human tumor cells: CNS Cancer SNB-75; type: cell-based; conditions: SNB-75 (CNS Cancer), 10^−4 molar
Outline: as §1

[1] = system: lymphocytic leukemia, lymphoid leukemia, melanocarcinoma, human breast xenograft and ovarian carcinoma; conditions: disclosure of U.S. Pat. No. 4,950,768; cited from earlier work
K562 = assay: NCI screen, growth of human tumor cells: Leukemia K562; type: cell-based; conditions: K562 (Leukemia), 10^−4 molar
Outline: as §1

KM12 = assay: NCI screen, growth of human tumor cells: Colon Cancer KM12; type: cell-based; conditions: KM12 (Colon Cancer), 10^−4 molar
Outline: as §1

MALME-3M = assay: NCI screen, growth of human tumor cells: Melanoma MALME-3M; type: cell-based; conditions: MALME-3M (Melanoma), 10^−4 molar
Outline: as §1

HCT-15 = assay: NCI screen, growth of human tumor cells: Colon Cancer HCT-15; type: cell-based; conditions: HCT-15 (Colon Cancer), 10^−4 molar
Outline: as §1

DU-145 = assay: NCI screen, growth of human tumor cells: Prostate Cancer DU-145; type: cell-based; conditions: DU-145 (Prostate Cancer), 10^−4 molar
Outline: as §1

OVCAR-4 = assay: NCI screen, growth of human tumor cells: Ovarian Cancer OVCAR-4; type: cell-based; conditions: OVCAR-4 (Ovarian Cancer), 10^−4 molar
Outline: as §1

IGROVI = assay: NCI screen, growth of human tumor cells: Ovarian Cancer IGROVI; type: cell-based; conditions: IGROVI (Ovarian Cancer), 10^−4 molar
Outline: as §1

UACC-257 = assay: NCI screen, growth of human tumor cells: Melanoma UACC-257; type: cell-based; conditions: UACC-257 (Melanoma), 10^−4 molar
Outline: as §1

EKVX = assay: NCI screen, growth of human tumor cells: Non-Small Cell Lung EKVX; type: cell-based; conditions: EKVX (Non-Small Cell Lung), 10^−4 molar
Outline: as §1

SN12C = assay: NCI screen, growth of human tumor cells: Renal Cancer SN12C; type: cell-based; conditions: SN12C (Renal Cancer), 10^−4 molar
Outline: as §1

human cancer cells = assay: NCI screen summary over the cancers tested (negative growth of human cancer cells); type: cell-based; conditions: 10^−4 M conc.; cancers with negative growth / cancers tested
Protocol: (§2) In the NCI screening process, each compound was tested and described by a minimum of 60 data points. The test data include, but are not limited to the type of cancer, the molar concentration used in the screen, and the percent growth of the cancer. In some cases, NMR and elemental analysis were used for structural assignment.
The derivatives in the tables are grouped using the same category as in the tables 1-6.

SK-MEL-5 = assay: NCI screen, growth of human tumor cells: Melanoma SK-MEL-5; type: cell-based; conditions: SK-MEL-5 (Melanoma), 10^−4 molar
Outline: as §1

SK-MEL-2 = assay: NCI screen, growth of human tumor cells: Melanoma SK-MEL-2; type: cell-based; conditions: SK-MEL-2 (Melanoma), 10^−4 molar
Outline: as §1

NCI-H23 = assay: NCI screen, growth of human tumor cells: Non-Small Cell Lung NCI-H23; type: cell-based; conditions: NCI-H23 (Non-Small Cell Lung), 10^−4 molar
Outline: as §1

MCF 7 = assay: NCI screen, growth of human tumor cells: Breast Cancer MCF 7; type: cell-based; conditions: MCF 7 (Breast Cancer), 10^−4 molar
Outline: as §1

M14 = assay: NCI screen, growth of human tumor cells: Melanoma M14; type: cell-based; conditions: M14 (Melanoma), 10^−4 molar
Outline: as §1

MDA-N = assay: NCI screen, growth of human tumor cells: Breast Cancer MDA-N; type: cell-based; conditions: 10^−4 molar
Protocol: as §2

MCF7/ADR-RES = assay: NCI screen, growth of human tumor cells: Breast Cancer MCF7/ADR-RES; type: cell-based; conditions: MCF7/ADR-RES (Breast Cancer), 10^−4 molar
Outline: as §1

OVCAR-8 = assay: NCI screen, growth of human tumor cells: Ovarian Cancer OVCAR-8; type: cell-based; conditions: OVCAR-8 (Ovarian Cancer), 10^−4 molar
Outline: as §1

SF-295 = assay: NCI screen, growth of human tumor cells: CNS Cancer SF-295; type: cell-based; conditions: SF-295 (CNS Cancer), 10^−4 molar
Outline: as §1

MDA-MB-231/ATCC = assay: NCI screen, growth of human tumor cells: Breast Cancer MDA-MB-231/ATCC; type: cell-based; conditions: MDA-MB-231/ATCC (Breast Cancer), 10^−4 molar
Outline: as §1

HT29 = assay: NCI screen, growth of human tumor cells: Colon Cancer HT29; type: cell-based; conditions: HT-29, 10^−4 molar
Outline: as §1

SF-539 = assay: NCI screen, growth of human tumor cells: CNS Cancer SF-539; type: cell-based; conditions: SF-539 (CNS Cancer), 10^−4 molar
Outline: as §1

LOXIMVI = assay: NCI screen, growth of human tumor cells: Melanoma LOXIMVI; type: cell-based; conditions: LOXIMVI (Melanoma), 10^−4 molar
Outline: as §1

U-251 = assay: NCI screen, growth of human tumor cells: CNS Cancer U-251; type: cell-based; conditions: U-251 (CNS Cancer), 10^−4 molar
Outline: as §1

NCI-H522 = assay: NCI screen, growth of human tumor cells: Non-Small Cell Lung NCI-H522; type: cell-based; conditions: NCI-H522 (Non-Small Cell Lung), 10^−4 molar
Outline: as §1

MDA-MB-435 = assay: NCI screen, growth of human tumor cells: Breast Cancer MDA-MB-435; type: cell-based; conditions: MDA-MB-435 (Breast Cancer), 10^−4 molar
Outline: as §1

HCT-116 = assay: NCI screen, growth of human tumor cells: Colon Cancer HCT-116; type: cell-based; conditions: HCT-116 (Colon Cancer), 10^−4 molar
Outline: as §1

SF-268 = assay: NCI screen, growth of human tumor cells: CNS Cancer SF-268; type: cell-based; conditions: SF-268 (CNS Cancer), 10^−4 molar
Outline: as §1

[2] = Water solubility noted at isolation; type: physicochemical; conditions: observation on the isolated product
Protocol: To a solution of 0.8 g of ethylene bromomethanedisulfonate (91-5) in 50 mL of glyme with 0.2 g of NaH was added followed by 0.6 g of the anhydride of 1,2-ethanedisulfonic acid. After 24 hrs, the solvent was removed and the residue taken up in 10 mL of acetone to give 0.5 g of water soluble 96-13.
To a solution of 0.58 g of ethylene methanedisulfonate in 50 mL of glyme and 0.2 g of NaH was added 0.65 g of 8-quinolinesulfonyl chloride. After 3 hrs., the solution was filtered, and the solid was washed with CH2Cl2 and dried overnight to give 1.155 g of a mixture of NaCl, Na2CO3, and product. A sample was H2O soluble and the calculated yield, based on assumption of the NaCl and Na2CO3, was 0.848 g (71%) of 97-4.

OVCAR-3 = assay: NCI screen, growth of human tumor cells: Ovarian Cancer OVCAR-3; type: cell-based; conditions: OVCAR-3 (Ovarian Cancer), 10^−4 molar
Outline: as §1

HCC-2998 = assay: NCI screen, growth of human tumor cells: HCC-2998 (listed under Non-Small Cell Lung); type: cell-based; conditions: HCC-2998 (under Non-Small Cell Lung), 10^−4 molar
Outline: as §1

Structure (SMILES): O=S1(=O)CS(=O)(=O)OCCO1 [NSC 348948, ethylene methanedisulfonate]
- percent of growth of human tumor cells (NCI-H460): 6%
- percent of growth of human tumor cells (UACC-62): −13%
- percent of growth of human tumor cells (CCRF-CEM): −3%
- percent of growth of human tumor cells (HOP-92): 6%
- percent of growth of human tumor cells (786-0): 24%
- percent of growth of human tumor cells (MOLT-4): 5%
- percent of growth of human tumor cells (SNB-19): 18%
- percent of growth of human tumor cells (ACHN): 22%
- percent of growth of human tumor cells (CAKI-1): −6%
- percent of growth of human tumor cells (SNB-75): 18%
- melting point: 176 to 180 °C
- effectiveness in the treatment of mice cancers [1]: effective
- percent of growth of human tumor cells (K562): 5%

Structure (SMILES): O=S1(=O)OCCOS(=O)(=O)C1c1cccc2cccnc12 [NSC 698122, ethylene 8-quinolylmethanedisulfonate]
- percent of growth of human tumor cells (KM12): 7%
- percent of growth of human tumor cells (MALME-3M): 29%
- percent of growth of human tumor cells (HCT-15): 18%
- percent of growth of human tumor cells (DU-145): 2%
- percent of growth of human tumor cells (NCI-H460): −40%
- percent of growth of human tumor cells (OVCAR-4): 30%
- percent of growth of human tumor cells (IGROVI): 17%
- percent of growth of human tumor cells (UACC-257): 13%
- percent of growth of human tumor cells (EKVX): 28%
- percent of growth of human tumor cells (UACC-62): −46%
- percent of growth of human tumor cells (SN12C): 28%
- Percentage of cancers showing negative growth cancers tested (human cancer cells): 10^−4 M conc. = 8/31 = 25.8%
- percent of growth of human tumor cells (SK-MEL-5): 15%
- percent of growth of human tumor cells (SK-MEL-2): 24%
- percent of growth of human tumor cells (NCI-H23): 27%
- percent of growth of human tumor cells (MCF 7): 12%
- percent of growth of human tumor cells (M14): 10%
- percent of growth of human tumor cells (MDA-N): 10%
- percent of growth of human tumor cells (MCF7/ADR-RES): −5%
- percent of growth of human tumor cells (OVCAR-8): 19%
- percent of growth of human tumor cells (SF-295): 18%
- percent of growth of human tumor cells (MDA-MB-231/ATCC): 26%
- % Growth (HT29): −64%
- percent of growth of human tumor cells (SF-539): 30%
- percent of growth of human tumor cells (LOXIMVI): −43%
- percent of growth of human tumor cells (U-251): −53%
- percent of growth of human tumor cells (NCI-H522): −40%
- percent of growth of human tumor cells (MDA-MB-435): 19%
- percent of growth of human tumor cells (HCT-116): 16%
- percent of growth of human tumor cells (SF-268): 24%
- water solubility [2]: H2O soluble
- percent of growth of human tumor cells (OVCAR-3): 25%
- percent of growth of human tumor cells (HCC-2998): −12%
